# Values of other authors in patent US6783757B2, “Composition and method for increasing exorphin catabolism to treat autism” (Kirkman Group, Inc., priority 2000, dated 2004).
# Test system: DPPIV
# Details: cultured mouse intestinal wall cells (enterocyte cells)
smiles,measurement,value
O=C[C@H](O)[C@@H](O)[C@@H](O)[C@H](O)CO [galactose],expression of DPPIV,increase the expression of DPPIV
